Where two headings read alike, the source gives them in different places.
Key:
Bj-5ta [1] = assay: MTT assay, BJ-5ta non-cancerous fibroblasts; assay type: cell-based, human; settings: non-cancerous dermal fibroblasts, 48 h incubation
How it was run: (§1)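 IC50 by nonlinear regression from MTT absorbance (540 nm, SDS-dissolved formazan), at least three repeats. Non-cancerous human lines, MCF-10A and BJ-5ta fibroblasts, were treated 48 h with 5, 10, 20 and 50 µmol/L compound, added 24 h after seeding.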

A549 [2] = assay: MTT assay, A549; assay type: cell-based, human; settings: lung adenocarcinoma, 48 h incubation
How it was run: (§2)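 Antiproliferative IC50 is derived by nonlinear regression from MTT colorimetry. Cells receive four compound concentrations (5 to 50 µmol/L) for 48 h under standard culture; formazan is read at 540 nm after SDS solubilisation.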

Hep G2 [3] = assay: MTT assay, Hep G2; assay type: cell-based, human; settings: hepatocellular carcinoma, 48 h incubation
How it was run: as §2

HeLa [4] = assay: MTT assay, HeLa; assay type: cell-based, human; settings: cervical adenocarcinoma, 48 h incubation
How it was run: as §2

HCT116 [5] = assay: MTT assay, HCT116; assay type: cell-based, human; settings: colorectal adenocarcinoma, 48 h incubation
How it was run: as §2

PATU [6] = assay: MTT assay, PATU 8902; assay type: cell-based, human; settings: pancreas adenocarcinoma, 48 h incubation
How it was run: as §2

A2058 [7] = assay: MTT assay, A2058; assay type: cell-based; settings: human melanoma, 48 h incubation
How it was run: as §2

[8] = target: T1, bovine serum albumin (BSA) (Bos taurus, UniProt P02769); assay: BSA fluorescence quenching (Stern–Volmer); assay type: binding; settings: for Stern–Volmer quenching constant Ksv: BSA 1 μM, excitation 280 nm, PBS pH 7.4, 24 °C; for bimolecular quenching rate constant kq: kq = Ksv/τ0, τ0 = 10^−8 s, BSA, pH 7.4, 24 °C
T1 construct: purchased Sigma-Aldrich
T1 sequence (P02769 25-607): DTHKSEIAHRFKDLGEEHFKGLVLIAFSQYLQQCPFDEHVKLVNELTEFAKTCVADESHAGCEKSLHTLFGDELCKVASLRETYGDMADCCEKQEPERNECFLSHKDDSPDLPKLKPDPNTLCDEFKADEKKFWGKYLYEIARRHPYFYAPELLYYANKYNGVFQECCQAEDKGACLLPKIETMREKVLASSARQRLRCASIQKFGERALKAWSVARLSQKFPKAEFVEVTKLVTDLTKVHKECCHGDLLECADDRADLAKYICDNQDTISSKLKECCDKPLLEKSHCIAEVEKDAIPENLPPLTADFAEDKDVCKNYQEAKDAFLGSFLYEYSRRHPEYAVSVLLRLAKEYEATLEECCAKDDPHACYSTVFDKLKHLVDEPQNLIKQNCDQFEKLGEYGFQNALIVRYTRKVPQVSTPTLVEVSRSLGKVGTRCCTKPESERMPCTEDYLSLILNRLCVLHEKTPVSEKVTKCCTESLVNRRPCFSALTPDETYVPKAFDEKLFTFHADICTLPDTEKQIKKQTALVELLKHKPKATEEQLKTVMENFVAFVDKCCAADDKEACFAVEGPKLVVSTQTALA
Excerpt: BSA contains 582 amino acid residues, including tyrosine (Tyr), phenylalanine (Phe), and tryptophan (Trp). The tryptophan residues located at positions 134 and 212 being predominantly responsible for its intrinsic fluorescence due to their higher quantum yield than the other amino acids. When excitation occurs at 280 nm, both Trp and Tyr contribute to the fluorescence of the protein [44]. In this study, we investigated the interaction of newly synthesized derivatives (7e·2HCl, 12d·2HCl, 13c·HCl, and 13d), which have promising anticancer properties, with BSA. BSA (1 μM) was titrated with increasing concentration of acridine derivatives, and fluorescence spectra were recorded in the range of 300–500 nm (Figure 10). The fluorescence quenching for the quencher (Q) and protein interaction was analyzed using the Stern–Volmer equation [45, 46]: F0/F=1+Ksv [Q]=1+Kq τ0[Q] where F0 and F denote the fluorescence intensities in the absence and presence of the quencher Q, respectively. Ksv is the Stern–Volmer constant, kq is the bimolecular quenching rate constant (kq = Ksv/τ0), and τ0 is the lifetime of BSA in the absence of quencher, which is equal to 10^−8 s for the tryptophan fluorescence of proteins.
The fluorescence spectra were recorded using a Varian Cary Eclipse spectrofluorometer (Palo Alto, CA, USA) in a 10 mM phosphate-buffered saline solution (pH = 7.4) at 24 °C. The spectra were measured with an excitation wavelength of 280 nm using a slit width of 10 nm for both the excitation and emission beams over a range of 300–450 nm. Spectrofluorometric BSA titrations were performed with increasing concentrations of acridine derivatives.

MCF-10A [9] = settings: cisplatin reference, 48 h; cited from earlier work
Bj-5ta [10] = settings: cisplatin reference, 48 h; cited from earlier work
A549 [11] = settings: cisplatin reference, 48 h; cited from earlier work
Hep G2 [12] = settings: cisplatin reference, 48 h; cited from earlier work
HeLa [13] = settings: cisplatin reference, 48 h; cited from earlier work
HCT116 [14] = settings: cisplatin reference, 48 h; cited from earlier work
PATU [15] = settings: cisplatin reference, 48 h; cited from earlier work
A2058 [16] = settings: cisplatin reference, 48 h; cited from earlier work
MCF-10A [17] = assay: MTT assay, MCF-10A non-cancerous cells; assay type: cell-based, human; settings: non-cancerous epithelial breast cells, 48 h incubation
How it was run: as §1

A2780 = assay: MTT assay, A2780; assay type: cell-based, human; settings: ovarian adenocarcinoma, 48 h incubation
How it was run: as §2

SMILES | IC50 (Bj-5ta [1]) [µM] | IC50 (A549 [2]) [µM] | IC50 (Hep G2 [3]) [µM] | IC50 (HeLa [4]) [µM] | IC50 (HCT116 [5]) [µM] | IC50 (PATU [6]) [µM] | IC50 (A2058 [7]) [µM] | Stern–Volmer quenching constant Ksv [8] | bimolecular quenching rate constant kq [8] | further results
COc1cc(/C=C2\SC(=O)N(Cc3c4ccccc4nc4ccccc34)C2=O)ccc1OCC(=O)Nc1ccc([N+](=O)[O-])cc1.Cl.Cl [12d·2HCl, 2-(4-{[(5Z)-3-[(Acridin-9-yl)methyl]-2,4-dioxo-1,3-thiazolidin-5-ylidene]methyl}-2-methoxyphenoxy)-N-(4-nitrophenyl)acetamide dihydrochloride] | > 50 | > 50 | > 50 | 19.3 ± 5.5 | 17.6 ± 4.5 | 30.8 ± 6.2 | > 50 | 10.47 × 10^4 [M^−1] | 10.47 × 10^12 [M^−1·s^−1] | –
COc1cc(/C=C2\SC(=O)N(Cc3cccc4cc5ccccc5nc34)C2=O)ccc1OCC(=O)Nc1cc(OC)c(OC)c(OC)c1.Cl [13c·HCl, 2-(4-{[(5Z)-3-[(Acridin-4-yl)methyl]-2,4-dioxo-1,3-thiazolidin-5-ylidene]methyl}-2-methoxyphenoxy)-N-(3,4,5-trimethoxyphenyl)acetamide hydrochloride] | > 50 | 14.6 ± 3.3 | 23.4 ± 3.4 | 14.3 ± 6.4 | > 50 | > 50 | > 50 | 10.58 × 10^4 [M^−1] | 10.58 × 10^12 [M^−1·s^−1] | –
N.N.[Cl][Pt][Cl] [Cisplatin] | – | – | – | – | – | – | – | – | – | IC50 (MCF-10A [9]): 25.9 ± 2.1 µM; IC50 (Bj-5ta [10]): 31 ± 0.7 µM; IC50 (A549 [11]): 17.3 ± 2.2 µM; IC50 (Hep G2 [12]): 14 ± 2.8 µM; IC50 (HeLa [13]): 30.4 ± 1.4 µM; IC50 (HCT116 [14]): 14.5 ± 2.5 µM; IC50 (PATU [15]): 20.7 ± 3.1 µM; IC50 (A2058 [16]): 18.8 ± 5.5 µM
Cl.Cl.O=C(COc1ccc(/C=C2\SC(=O)N(Cc3c4ccccc4nc4ccccc34)C2=O)cc1)Nc1ccccc1C(F)(F)F [Compound 7e·2HCl, 2-(4-{[(5Z)-3-[(Acridin-9-yl)methyl]-2,4-dioxo-1,3-thiazolidin-5-ylidene]methyl}phenoxy)-N-[2-(trifluoromethyl)phenyl]acetamide dihydrochloride] | > 50 | 34.3 ± 5.7 | > 50 | 20.5 ± 3.8 | 8.9 ± 3.1 | 11 ± 2.2 | > 50 | 10.74 × 10^4 [M^−1] | 10.74 × 10^12 [M^−1·s^−1] | IC50 (MCF-10A [17]): > 50 µM; IC50 (A2780): > 50 µM
COc1cc(/C=C2\SC(=O)N(Cc3cccc4cc5ccccc5nc34)C2=O)ccc1OCC(=O)Nc1ccc([N+](=O)[O-])cc1 [Compound 13d, 2-(4-{[(5Z)-3-[(Acridin-4-yl)methyl]-2,4-dioxo-1,3-thiazolidin-5-ylidene]methyl}-2-methoxyphenoxy)-N-(4-nitrophenyl)acetamide] | – | – | – | – | 4.9 ± 2.9 | – | – | 9.59 × 10^4 [M^−1] | 9.59 × 10^12 [M^−1·s^−1] | IC50 (MCF-10A [17]; Homo sapiens, MCF-10A, 48 h): > 50 µM; IC50 (Bj-5ta [1]; Homo sapiens, Fibroblast, 48 h): 38.5 ± 4.5 µM; IC50 (A549 [2]; Homo sapiens, A549, 48 h): 46.9 ± 3.1 µM; IC50 (Hep G2 [3]; Homo sapiens, HepG2, 48 h): > 50 µM; IC50 (A2780; Homo sapiens, A2780, 48 h): > 50 µM; IC50 (HeLa [4]; Homo sapiens, HeLa, 48 h): 36.2 ± 5.23 µM; IC50 (PATU [6]; Homo sapiens, PaTu 8902, 48 h): > 50 µM; IC50 (A2058 [7]; Homo sapiens, A2058, 48 h): 38.1 ± 1.65 µM; melting point: 254 to 257 °C (dec.)

From publication PMC11280325, “Design, Synthesis, and Characterization of Novel Thiazolidine-2,4-Dione-Acridine Hybrids as Antitumor Agents” (Molecules, 2024)
